{"source": "paper PMC11359809", "about": "“Probing the molecular basis for signal transduction through the Zinc-Activated Channel (ZAC)” (Biochemical pharmacology, 2021)", "key": {"WT ZAC": {"target": "T1, WT ZAC (Homo sapiens, UniProt Q401N2, A152T)", "T1 construct": "expressed in transfected cells; host or cells: Xenopus oocytes injected with cRNA (pUNIV vector)", "T1 sequence (Q401N2 26-412 A152T)": "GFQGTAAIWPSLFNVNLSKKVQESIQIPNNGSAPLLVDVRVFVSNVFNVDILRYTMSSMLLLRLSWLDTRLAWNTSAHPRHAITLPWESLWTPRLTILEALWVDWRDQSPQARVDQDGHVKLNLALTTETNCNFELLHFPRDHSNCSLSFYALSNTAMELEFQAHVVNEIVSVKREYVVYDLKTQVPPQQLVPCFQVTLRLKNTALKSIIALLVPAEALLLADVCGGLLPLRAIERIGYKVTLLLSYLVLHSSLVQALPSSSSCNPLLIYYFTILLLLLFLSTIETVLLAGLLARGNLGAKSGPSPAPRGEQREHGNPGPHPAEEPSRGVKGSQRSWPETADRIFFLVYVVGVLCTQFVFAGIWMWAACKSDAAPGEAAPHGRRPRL", "assay": "TEVC in Xenopus oocytes expressing WT ZAC", "type": "cell-based", "details": "TC 100 μM", "procedure": "(§1) The recordings were performed at room temperature.\n(§2) Analysis of the data from the TEVC recordings were performed using Clampfit software version 10.5 (Molecular Devices, Crawley, UK) and GraphPad Prism version 7.0c (GraphPad Software, La Jolla, CA). Unless otherwise stated, the inward currents induced by agonists in oocytes were normalized to the maximal response elicited by a specific agonist (agonist Imax) on each oocyte. Concentration-response and concentration-inhibition curves were fitted in GraphPad Prism by nonlinear regression using the equation for sigmoidal dose-response with variable slope. Each data point represents the mean ± S.E.M. value of recordings performed on at least five oocytes in total from at least two different batches. For the data where statistical analysis was performed, a one-way ANOVA was used. The null hypothesis was rejected at P < 0.05, and the differences between the means were analyzed by Tukey’s multiple comparisons test."}, "ZAC^L9′A": {"target": "T2, ZAC^L9′A (Homo sapiens, UniProt Q401N2, A152T/L270A)", "T2 construct": "expressed in transfected cells; host or cells: Xenopus oocytes injected with cRNA (pUNIV vector)", "T2 sequence (Q401N2 26-412 A152T/L270A)": "T1 sequence (Q401N2 26-412 A152T) with L245A", "assay": "TEVC in oocytes, ZAC L9′A mutant", "type": "cell-based", "details": "TC 100 μM", "procedure": "as §1, §2"}, "ZAC^L9′V": {"target": "T3, ZAC^L9′V (Homo sapiens, UniProt Q401N2, A152T/L270V)", "T3 construct": "expressed in transfected cells; host or cells: Xenopus oocytes (cRNA injection, pUNIV vector)", "T3 sequence (Q401N2 26-412 A152T/L270V)": "T1 sequence (Q401N2 26-412 A152T) with L245V", "assay": "TEVC in oocytes, ZAC L9′V mutant", "type": "cell-based", "details": "TC 100 μM; outward currents compared to WT ZAC and ZAC^L9′A", "procedure": "as §1, §2"}, "ZAC^L9′I": {"target": "T4, ZAC^L9′I (Homo sapiens, UniProt Q401N2, A152T/L270I)", "T4 construct": "expressed in transfected cells; host or cells: Xenopus oocytes (cRNA injection, pUNIV vector)", "T4 sequence (Q401N2 26-412 A152T/L270I)": "T1 sequence (Q401N2 26-412 A152T) with L245I", "assay": "TEVC in oocytes, ZAC L9′I mutant", "type": "cell-based", "details": "TC 100 μM; outward currents compared to WT ZAC and ZAC^L9′A", "procedure": "as §1, §2"}, "ZAC^L9′T": {"target": "T5, ZAC^L9′T (Homo sapiens, UniProt Q401N2, A152T/L270T)", "T5 construct": "expressed in transfected cells; host or cells: Xenopus oocytes (cRNA injection, pUNIV vector)", "T5 sequence (Q401N2 26-412 A152T/L270T)": "T1 sequence (Q401N2 26-412 A152T) with L245T", "assay": "TEVC in oocytes, ZAC L9′T mutant", "type": "cell-based", "details": "TC 100 μM; outward currents compared to WT ZAC and ZAC^L9′A", "procedure": "as §1, §2"}, "[1]": {"tested_on": "ZAC^L9′X mutants (L9′A, L9′V, L9′I, L9′T)", "assay": "TEVC in oocytes, all four L9′X mutants (collective statement)", "type": "cell-based, human", "details": "TC 100 μM; 1 mM Zn^2+; range over all four mutants", "procedure": "as §1, §2\nFig. 8. Functional importance of the Leu9′ residue in ZAC. […] B. Resting membrane potentials (left) and leak currents (right) recorded from oocytes expressing WT ZAC, ZAC^L9′A, ZAC^L9′T, ZAC^L9′V and ZAC^L9′I. Data are given as mean ± S.E.M. values (n = 40–60). C. […]"}}, "note": "Numbering of substitutions follows the chain as printed."}
{"compound": "COc1cc2c3cc1Oc1cc(ccc1O)C[C@@H]1c4c(cc(OC)c(O)c4Oc4ccc(cc4)C[C@@H]3N(C)CC2)CC[N+]1(C)C", "note": "[TC, tubocurarine]", "values": [{"measurement": "I100 μM TC (antagonist-evoked current, spontaneous activity)", "setting": "WT ZAC", "value": "small but significant outward currents"}, {"measurement": "I100 μM TC (antagonist-evoked current, spontaneous activity)", "setting": "ZAC^L9′A", "value": "small but significant outward currents"}, {"measurement": "I100 μM TC (antagonist-evoked current, spontaneous activity)", "setting": "ZAC^L9′V", "value": "substantially higher amplitudes"}, {"measurement": "I100 μM TC (antagonist-evoked current, spontaneous activity)", "setting": "ZAC^L9′I", "value": "substantially higher amplitudes"}, {"measurement": "I100 μM TC (antagonist-evoked current, spontaneous activity)", "setting": "ZAC^L9′T", "value": "substantially higher amplitudes"}, {"measurement": "I100 μM TC/(IZn2+ max + I100 μM TC) ratio (degree of spontaneous activity)", "setting": "[1]", "value": "34–40%"}]}
